Assay results taken from patent US5552267A, “Solution for prolonged organ preservation” (priority 1994, dated 1996).

Tests used:
[1] = tested on: cardiac graft vasculature; assay: perfusion of donor grafts by microspheres, nitric oxide series; format: in vivo, rat; settings: 12 h preservation in LR
Method: Ten minutes after restoration of blood flow, 0.5 ml of 10 μm diameter microspheres (10^6 /ml) (E-Z Trac, Los Angeles, Calif.) was injected into the donor aortic root. Deposition of microspheres in ventricular tissue was assessed following alkaline hydrolysis, washing, and counting of microspheres as described^8, with results expressed as number of spheres per (40×) field per gram of ventricle. A minimum of ten fields were counted and the mean ±SEM is reported.

nitric oxide synthase = assay: cardiac nitric oxide synthase activity (L-arginine to L-citrulline conversion); format: biochemical, rat; settings: LR with vs without supplement, 12 h
Method: Hearts were either freshly explanted, preserved, or preserved/transplanted (with 10 min. of reperfusion), after which they were excised. The coronary arteries were flushed with physiologic saline, the atria and great vessels excised, and the ventricular cavities rinsed free of residual intracavitary blood. Samples were flash-frozen in liquid nitrogen and stored at -80° C. until the time of assay. Extracts were prepared by homogenizing tissue at 4° C. in the presence of protease inhibitors (aprotinin, epsilon amino caproic acid, PMSF, pepstatin A, and chymostatin), and centrifuging (20,000 rpm×20 min) to remove cellular debris. The extract (20 μg of protein by the method of Lowry^15) was incubated for 60 min. in the presence of CaCl2 (10 μM), FAD (8 μM), dithiothreitol (60 μM)(Sigma), tetrahydrobiopterin (8 μM; B. Schirks, Switzerland), and ^3 H-L-arginine (0.072 μM, 5 μCi;, Amersham, Arlington Heights, Ill.). Thin layer chromatography (TLC) was performed with 5 μl of the reaction mix, using methanol:chloroform:water:ammonium hydroxide (9:2:8:3) as the running solvent. Silica gel TLC plates (Sigma) were stained with ninhydrin (1 g/500 ml ethanol) and the spots corresponding to L-arginine, L-ornithine, and L-citrulline cut out and counted. […] Results are expressed as the mean ±SEM of 3 determinations.

[2] = tested on: cGMP-regulated phosphodiesterases; settings: cited from earlier work
heart = assay: heterotopic rat cardiac transplant, nitric oxide series, graft survival/score; format: in vivo, rat (male Sprague-Dawley); settings: for graft survival: NTG 0.1 mg/ml where added
Excerpt: Male Sprague-Dawley rats (350 grams, Camm Research, Wayne, N.J.) were used, and harvest, preservation, and transplantation procedures performed as described^8. Preservation solutions included lactated Ringer's (LR) solution (Baxter, Edison, N.J.), or LR supplemented with nitroglycerin (DuPont, Wilmington, Del.), sodium nitroprusside (Roche Laboratories, Nutley, N.J.), N^G -monomethyl-L-arginine (L-NMMA; Chembiochem, Salt Lake City, Utah), L-arginine (Sigma Chemical Co., St. Louis, Mo.), or 8-bromoguanosine3',5'monophosphate (8-Br-cGMP; Sigma). Components were combined within 4 hrs of donor cardiectomy, and preservation solutions were kept at 4° C. All of these solutions were at the pH of LR (6.6). University of Wisconsin solution (UW) was purchased from Dupont. […] Ten minutes after removal of the cross-clamp, an electrocardiogram was taken (Grass Polygraph, Quincy, Mass.) and the heart was judged by the same blinded investigators throughout based on the presence/absence of regular contractions and a transplant score (0-5, worst-best, respectively) employing the following criteria: contraction (poor=0, average=1, vigorous=2), tissue turgor (hard=0, average=1, soft=2), and color (dusky=0, pink=1).
Graft survival data was analyzed by contingency analysis (chi-square). Transplant scores, microsphere perfusion, myeloperoxidase, NO synthase, and platelet serotonin release data were analyzed using ANOVA for unpaired variables with the Tukey test used to discriminate significant differences between group means. Values are expressed as means ±SEM, with a p<0.05 considered statistically significant.

[3] = tested on: platelet accumulation in lung graft; assay: graft platelet accumulation (111Indium-labelled platelets); format: in vivo, rat; settings: NTG 0.1 mg/mL in EC, 6 h
Method: Graft platelet accumulation was determined using ^111 Indium-labelled platelets, prepared as described^39. Blood (5.0 mL) was taken from a gender/strain matched donor rat and heparinized (2500 units). Platelets were isolated by differential centrifugation, first at 300 g for 5 minutes to obtain platelet-rich plasma, which was then washed 3 times at 2,000 g for 15 minutes in 10 ml of acid-citrate-dextrose-anticoagulant (ACD-A; citric acid 38 mM, sodium citrate 75 mM, glucose 135 mM). The pellet was suspended in 5 mL of ACD-A, centrifuged at 100 g for 5 minutes to remove contaminating red blood cells, and the supernatant collected. ^111 Indium oxyquinoline (70 μL of 1 mCi/mL, Amersham Mediphysics, Arlington Heights, Ill.) was added with gentle shaking for 30 minutes at room temperature. […] One minute following platelet infusion (immediately prior to reperfusion), 0.5 mL of blood was taken from the left atrium to determine blood radioactivity, to ascertain blood platelet concentrations to normalize for variations in blood loss during surgery. Five minutes following reperfusion, the native right pulmonary artery was ligated, the graft was removed 10 minutes thereafter, and ^111 Indium-platelet deposition quantified by gamma counting. Platelet accumulation was expressed as the ratio of graft radioactivity to blood radioactivity normalized to dry weight.

[4] = tested on: neutrophil accumulation in lung graft; assay: lung graft myeloperoxidase, nitroglycerin series; format: in vivo, rat; settings: NTG 0.1 mg/mL in EC, 6 h
Method: Thirty minutes following ligation of the native right pulmonary artery, or at the time of recipient death, transplanted lungs were removed, rinsed briskly in physiologic saline, and snap frozen in liquid nitrogen until the time of myeloperoxidase or TBARs assay.
Tissue was homogenized in phosphate buffer (50 mM, pH 5.5, 5 ml/gm of tissue) containing hexadecyltrimethyl ammonium bromide (0.5%, Sigma). The assay was performed, as previously described^35, by thawing the sample, centrifuging at 40,000 g for 15 minutes, and decanting the supernatant, which was assayed for myeloperoxidase activity using a standard chromogenic spectrophotometric technique in which test sample (0.03 mL) was added to phosphate buffer (0.97 mL) containing O-dianisidinedihydrochloride (Sigma) and hydrogen peroxide (0.0005%), and change in absorbance at 460 nm was measured over 1 minute (increase in OD was linear over this time interval).

| SMILES | graft blood flow [1] | nitric oxide synthase activity after transplantation (nitric oxide synthase) | interaction with allosteric binding sites [2] | concentration of maximal benefit (heart; 8-Br-cGMP dose-response, 12 h in LR) | effect on graft preservation (words) (heart; 12 h in LR) | effect on graft preservation (words) (heart; 12 h in LR, listed as 8-bromo-cGMP) | graft platelet accumulation [3] | graft neutrophil accumulation [4] | graft survival (heart; 24-28 h in UW) | graft survival (heart; 12 h in LR) | concentration of maximal effect (heart; NTG dose-response, 12 h in LR) |
| --- | --- | --- | --- | --- | --- | --- | --- | --- | --- | --- | --- |
| Nc1nc2c(nc(Br)n2[C@@H]2O[C@@H]3COP(=O)(O)O[C@H]3[C@H]2O)c(=O)[nH]1 [8-Br-cGMP, 8-bromoguanosine-3'5' cyclic monophosphate] | enhanced blood flow | similar | does not interact with the allosteric binding sites | 0.5 mM | enhanced cardiac preservation in a dose-dependent manner | enhanced graft survival |  |  |  |  |  |
| O=[N+]([O-])OCC(CO[N+](=O)[O-])O[N+](=O)[O-] [NTG, nitroglycerin] | enhanced blood flow | similar |  |  |  |  | significant decline in both neutrophil and platelet accumulation | significant decline in both neutrophil and platelet accumulation | 100% | 92% | 0.1 mg/mL |
